Data set [1] relates to P. putida KT2440. To be noted: minimal medium, A600 after 20 hours. How it is done: (§1) Overnight cultures of P. putida KT2440 and P. putida KT2440ΔcrcB were diluted 20 times in 10 mL of modified M9 minimal medium containing different concentrations of NaF. Cells were grown in 96-well microtiter plates (flat bottom, Greiner Bio-one) at 30° C. and 200 rpm in an ELx808 microtiter plate reader (BioTek). Cells exposed to NaF at various concentrations were incubated in a microtiter plate reader for 24 hours, and growth was followed by measuring OD630 every 30 minutes. The concentrations used for each strain were 0, 25, 50, 75, 125, 200 and 250 mM for P. putida KT2440, and 0, 0.1, 0.5, 1 and 5 mM for P. putida KT2440ΔcrcB.
(§2) The effect of the deletion of crcB on the growth in the presence of high concentrations of NaF in P. putida KT2440 was assessed by calculating the minimal inhibitory concentrations (MICs) of NaF needed to suppress the growth in both a wild-type and a ΔcrcB mutant.

The subject of data set [2] is P. putida KT2440ΔcrcB. How it is done:
as §1, §2

Data set [3] relates to P. putida KT2440ΔcrcB. To be noted: data not shown. As for the experimental part: Growth arrest by NaF in P. putida KT2440ΔcrcB was performed by diluting 20 times the overnight cultures in 10 mL of modified M9 minimal medium. Cells were grown in 96-well microtiter plates (flat bottom, Greiner Bio-one) at 30° C. and 200 rpm in an ELx808 microtiter plate reader (BioTek). After six hours of incubation, the cultures had reached an OD630 of 0.5, and the NaF was added at different concentrations. Cells exposed to the stressor were incubated in a microtiter plate reader for 24 hours, and growth was followed by measuring OD630 every 30 minutes. The concentrations of NaF used were 0, 0.05, 0.1, 0.5, 0.75, 1, 2 and 5 mM.
To explore the possibility of having a growth-decoupled platform for biofluorination, we tested the effect of NaF in the growth when added in mid-exponential phase.

Data set [4] relates to F^− responsive riboswitch (FRS) from P. syringae. The data set is described as follows: Expression assay, FRS constructs FRSv1-4 before msfGFP in P. putida KT2440. To be noted: 0, 1, 5 and 15 mM of NaF. It counts as cell-based, Pseudomonas putida.
Protocol: Overnight cultures of P. putida KT2440 with plasmids pSEVA441-FRSv1, pSEVA441-FRSv2, pSEVA441-FRSv3, pSEVA441-FRSv4, or pSEVA441 as autofluorescence control, were diluted 40 times in 10 ml of minimal medium. […] Subsequently, kinetics of the growth and fluorescence, using wavelengths of excitation and emission of 485 nm and 528 nm, respectively, were performed using a SynergyMX (BioTek) microtiter plate reader for 20 hours. Measurements for kinetics were carried out every ten minutes and three independent biological replicates were carried out.
To check the performance of the riboswitch in P. putida KT2440 we cloned four different versions of the riboswitch before the fluorescent reporter protein msfGFP. In the constructions FRSv1 and FRSv2 we kept the original promoter of gene eriC^F, whereas in FRSv3 and FRSv4 we changed the promoter to a constitutive heterologous promoter, PEM7. In the constructions FRSv1 and FRSv3 we conserved the first 8 amino acids of the original eriC^F gene as well, whereas FRSv2 and FRSv4 started with the coding sequence of the msfGFP (FIG. 2).
Data set [5] concerns FRS-PT7 system. The data set is described as follows: Expression assay, FRS-PT7 system with PT7-msfgfp in P. putida KT2440ΔcrcB::FRS-T7RNAP. The data set is classed as cell-based, Pseudomonas putida. To be noted: lower NaF concentrations than in the P. putida KT2440 background.
Protocol: (§5) Overnight cultures of P. putida KT2440 with plasmids pSEVA441-FRSv1, pSEVA441-FRSv2, pSEVA441-FRSv3, pSEVA441-FRSv4, or pSEVA441 as autofluorescence control, were diluted 40 times in 10 ml of minimal medium. […] Subsequently, kinetics of the growth and fluorescence, using wavelengths of excitation and emission of 485 nm and 528 nm, respectively, were performed using a SynergyMX (BioTek) microtiter plate reader for 20 hours. Measurements for kinetics were carried out every ten minutes and three independent biological replicates were carried out. The same procedure was carried out with P. putida KT2440::FRS-T7RNAP and P. putida KT2440ΔcrcB::FRS-T7RNAP strains containing the plasmid pSEVA231-T7pr::msfGFP as well as with the plasmid pSEVA231-T7pr, used as an autofluorescence control.
Data set [6] relates to FRS-PT7 system.
Protocol: as §5
Data set [7] has as its system PNP FlB1. The data set is described as follows: In vitro phosphorylase activity assay with cell extracts expressing FlB1. It counts as biochemical, Streptomyces sp. MA37. To be noted: 20 hours of incubation, extracts with plasmid pFB-T7FlB1(NHis). How it is done:
In vitro biofluorination was performed with the strain P. putida KT2440 harboring the plasmids pFB-PmflA1, pFB-PT7flB1(NHis), and pFB-PT7flA1, and pPS23 or pSEVA231-PT7pr as negative controls, respectively. Overnight cultures of the strains were diluted to an OD600 of 0.1 in fresh minimal medium, in 250-ml shake flasks. Cells were grown for six hours at 30° C. with shaking of 200 rpm, when they reached an OD600 between 0.4-0.6, after which they were induced with 3-MB 1 mM for the XylS/Pm system or 15 mM of NaF for the FRS-PT7. After 20 hours of incubation, all the volume of culture was centrifuged at 5000 rpm for 10 minutes at 4° C., and the supernatant was discarded. Cellular pellets were washed with Tris-HCl 50 mM pH7.8 and resuspended in a final volume of 3 ml. Cells were disrupted using glass beads in a bead beater, using a program of 6000 rpm for 20 seconds. […] Protein concentrations were determined using a Bradford assay, yielding a concentration of at least 1 mg/ml.
Similarly, for phosphorylase activity assays, 1 ml of the protein fraction from cultures expressing the phosphorylase was then mixed with 0.2 mM of 5′-FDA, in Tris-HCl 50 mM pH7.8. […] After 20 hours of incubation at 30° C., the rest of the reaction was inactivated as described before and the supernatant was taken and analyzed by HPLC. […]

Data set [8] concerns the target T1, E. coli PNP, coded by the gene deoD (Escherichia coli, UniProt P0ABP8).
T1 construct: made in house; host or cells: Pseudomonas putida (pPS23 vector, XylS/Pm system; crude cell extract, not purified)
The data set is described as follows: In vitro conversion of 5′-FDA by cell extracts expressing DeoD. It counts as biochemical. To be noted: 20 hours. As for the experimental part: (§3) The E. coli purine nucleotide phosphorylase, coded by the gene deoD (SEQ ID NO: 14), as well as the nucleosidase pfs (SEQ ID NO: 16), were amplified by PCR from the genome of the strain MG1655 using reverse primers containing the sequence to introduce a 6×His tag, in order to allow purification if needed. These fragments were respectively mixed with a PCR fragment amplified with USER primers of the pPS23 vector, containing the XylS/Pm expression system. The cloning was performed by USER cloning as described above.
(§4) We furthermore explored the possibility that 5′-FDA could be utilized for other enzymes different to the endogenous of the fluorination pathway from Streptomyces. For this purpose, we used another PNP and a nucleosidase of E. coli. The E. coli PNP, coded by the gene deoD (SEQ ID NO: 14), is able to perform the same reaction as FlB1, and produce 5′-FDRP, whereas the nucleosidase, coded by the gene pfs (SEQ ID NO: 16), removes the […] of 5′-FDA, yielding the sugar 5′-fluorodeoxyribose. These three enzymes share a similarity of 26% in their amino acidic sequence, and contain a common domain, the PNP_UDP_1 domain (PF0148), belonging to the Phosphorylase superfamily. To test the activity of these two enzymes, they were overexpressed in P. putida and the cell extracts were incubated with the substrate 5′-FDA.

Data set [9] deals with T2, nucleosidase, coded by the gene pfs (Escherichia coli, UniProt P0AF12).
T2 construct: made in house; host or cells: Pseudomonas putida (pPS23 vector, XylS/Pm system; crude cell extract, not purified)
T2 sequence (P0AF12 whole entry): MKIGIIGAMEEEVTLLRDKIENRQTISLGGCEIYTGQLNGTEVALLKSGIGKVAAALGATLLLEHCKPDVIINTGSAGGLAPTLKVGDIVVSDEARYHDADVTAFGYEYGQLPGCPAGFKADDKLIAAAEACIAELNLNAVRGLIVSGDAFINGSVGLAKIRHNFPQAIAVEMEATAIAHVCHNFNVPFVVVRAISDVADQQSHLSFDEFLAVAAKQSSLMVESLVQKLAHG
The data set is described as follows: In vitro conversion of 5′-FDA by cell extracts expressing Pfs. It counts as biochemical, E. coli. To be noted: 20 hours. As for the experimental part: as §3, §4

In data set [10] the test system is XylS/Pm system. To be noted: Calero 2016; cited from earlier work.

Where two headings read alike, the source gives them in different places.

T1 sequence (P0ABP8 whole entry): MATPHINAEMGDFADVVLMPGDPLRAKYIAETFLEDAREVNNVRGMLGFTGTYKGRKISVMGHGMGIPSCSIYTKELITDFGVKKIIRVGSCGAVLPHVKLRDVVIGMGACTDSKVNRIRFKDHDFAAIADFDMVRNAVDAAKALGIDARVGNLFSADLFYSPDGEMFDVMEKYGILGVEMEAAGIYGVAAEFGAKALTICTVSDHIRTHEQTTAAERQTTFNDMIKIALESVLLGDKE

`[F-].[Na+]` [NaF, Sodium fluoride]: the “NaF concentration in which the strain was able to thrive (MIC assay)” value in data set [1] stood at 75 mM. Also, the “Growth inhibition on plates” value in [2] (LB plates containing 0.5 and 1 mM of NaF) is recorded as “This effect was also seen”. Also, in [2] (minimal medium, A600 after 20 hours), the “NaF concentration at which the strain was not able to grow (MIC assay)” value is recorded as 0.5 mM. Besides, the Effect on growth result is listed as “a decrease in the growth phase was found” in data set [3] (0.5 mM of NaF added in mid-exponential phase) and “stopped cell growth almost completely” in [3] (1 mM of NaF added in mid-exponential phase). Besides, in [4], the “Fluorescence response of the four FRS constructs” value is reported as “an increase of the fluorescence when higher concentrations of NaF were used”. The “Expression levels relative to the wild-type background” value in data set [5] was “almost two times higher than in the wild-type background”. Moreover, in [6] (0, 1 and 15 mM of NaF), the “Fluorescence response of the FRS-PT7 system” value was “led to an increase of the cells fluorescence”. For the same molecule, in [6] (NaF concentrations used for induction (up to 15 mM)), the “Final growth of the cultures” value is “not affected”.

For the molecule `Nc1ncnc2c1ncn2[C@@H]1O[C@H](CF)[C@@H](O)[C@H]1O` [5′-FDA, 5′-fluoro-5′-deoxyadenosine], in [7], the “Change of 5′-FDA concentration versus initial concentration” value is recorded as “a decrease in the concentration of 5′-FDA”. Besides, the “Consumption of substrate 5′-FDA (product 5′-FDRP detected by LC-MS)” value in data set [8] is recorded as “reduced or depleted completely”. Further, the “Consumption of substrate 5′-FDA (product 5′-fluorodeoxyribose detected by LC-MS)” value in data set [9] was “reduced or depleted completely”.

Turning to `Cc1cccc(C(=O)O)c1` [3-MB, 3-methylbenzoate], the “Inducer concentration needed to achieve full expression” value in data set [10] was 0.5 mM.

As for `[Cl-].[Na+]` [NaCl, reference compound], the “Effect on growth of the ΔcrcB mutant versus wild-type” value in data set [2] (same assays in the presence of NaCl, data not shown) is “no such effect was seen”.

(Values after patent US20240263207A1, “IN VIVO FLUORINATION” (Danmarks Tekniske Universitet, priority 2018, published 2024).)
